Results from patent US5789434A, “Derivatives of substituted 4-biarylbutyric acid as matrix metalloprotease inhibitors” (priority 1995, dated 1998).
pIC50: −log10 of the molar value. Counter-ions that a name gives are not always drawn. Like-named read-outs stand apart in the source and are kept apart here.

Assays:
[1] = biological target: T1, MMP-3 (Homo sapiens, UniProt P08254); assay: Primary Thiopeptilide MMP-3 Inhibition Assay; assay type: biochemical; details: for inhibition at 5 µM: read-out: MMP-3 Thiopep. % inhibition; for pIC50: pH 6.5, 13 nM stromelysin, x (n) = average of n determinations, read-out: MMP-3 Thiopep. IC50
T1 construct: Truncated Prostromelysin-257 was expressed in a soluble form in E.coli; made in house; host or cells: E. coli
T1 sequence (P08254 100-274 limits assumed): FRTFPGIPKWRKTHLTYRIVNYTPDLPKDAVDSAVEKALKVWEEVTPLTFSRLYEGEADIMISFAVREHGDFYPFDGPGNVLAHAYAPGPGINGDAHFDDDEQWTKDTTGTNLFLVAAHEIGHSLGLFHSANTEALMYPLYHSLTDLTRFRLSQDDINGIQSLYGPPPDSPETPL
Description: Enzyme: recombinant stromelysin expressed in E.coli and purified as described above. […] The protocols for the assay of compounds as stromelysin inhibitors was the same as that used for MMP-9 except that the assay buffer was 50 mM MES, pH 6.5 containing 150 mM NaCl, 10 mM CaCl2, 0.005% Brij, and 1% DMSO.

[2] = biological target: T2, MMP-9 (Homo sapiens, UniProt P14780); assay: Thiopeptilide MMP-9 Inhibition Assay; assay type: biochemical; details: for inhibition at 5 µM: read-out: MMP-9: Thiopep. % inhibition; for pIC50: pH 6.5, x (n) = average of n determinations, read-out: MMP-9: Thiopep. IC50
T2 construct: from tissue; host or cells: human polymorphonuclear leukocytes (PMN) from whole blood (New York Blood Center), PMA-stimulated supernatant
T2 sequence (P14780 107-707 limits assumed): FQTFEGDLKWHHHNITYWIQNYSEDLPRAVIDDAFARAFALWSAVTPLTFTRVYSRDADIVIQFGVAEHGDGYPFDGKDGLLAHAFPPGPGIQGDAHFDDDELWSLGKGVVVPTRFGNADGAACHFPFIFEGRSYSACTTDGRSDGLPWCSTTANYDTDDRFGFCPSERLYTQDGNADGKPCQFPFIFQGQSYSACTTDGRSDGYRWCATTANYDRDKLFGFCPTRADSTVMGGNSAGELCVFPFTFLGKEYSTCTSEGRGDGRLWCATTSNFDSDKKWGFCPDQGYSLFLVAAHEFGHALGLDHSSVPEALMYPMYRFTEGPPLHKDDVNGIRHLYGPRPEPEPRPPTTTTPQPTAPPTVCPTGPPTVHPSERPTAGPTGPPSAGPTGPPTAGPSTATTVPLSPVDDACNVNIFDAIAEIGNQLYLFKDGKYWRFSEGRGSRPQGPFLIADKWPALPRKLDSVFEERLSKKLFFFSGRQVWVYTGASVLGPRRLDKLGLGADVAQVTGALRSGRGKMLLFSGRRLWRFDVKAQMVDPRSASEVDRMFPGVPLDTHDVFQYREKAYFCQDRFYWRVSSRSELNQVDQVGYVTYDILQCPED

CC(C)(C)C(=O)SCC(CC(=O)c1ccc(-c2ccc(Cl)cc2)cc1)C(=O)O (single isomer, unassigned) [Example 195, [1,1'-Biphenyl]-4-butanoic acid, 4'-chloro-α-[[(2,2-dimethyl-1-oxopropyl)thio]methyl]-γ-oxo-] gave an inhibition at 5 µM [1] of 31% and an inhibition at 5 µM ([2]; at 5 μM) of 20%.

Work on O=C(CC(CSC1CCCCC1)C(=O)O)c1ccc(-c2ccc(Cl)cc2)cc1 (stereo not drawn) [Example 214, [1,1'-Biphenyl]-4-butanoic acid, 4'-chloro-α-[(cyclohexylthio)methyl]-γ-oxo-] yielded a pIC50 [1] of 6.77 and a pIC50 [2] of 5.66.

CCCC(CC(=O)c1ccc(-c2ccc(Cl)cc2)cc1)C(=O)O (stereo not drawn) [Example 118, [1,1'-Biphenyl]-4-butanoic acid, 4'-chloro-γ-oxo-α-propyl-] was tested, and the pIC50 [1] was 6.36 and the pIC50 [2] was 5.66.

Work on O=C(CC(CSc1ccc([N+](=O)[O-])cc1)C(=O)O)c1ccc(-c2ccc(Cl)cc2)cc1 (stereo not drawn) [Example 224, [1,1'-Biphenyl]-4-butanoic acid, 4'-chloro-α[[(4-nitrophenyl)thio]methyl]-γ-oxo-] yielded a pIC50 [1] of 6.17 and a pIC50 [2] of 6.26.

For CCC(CC(=O)c1ccc(-c2ccc(Cl)cc2)cc1)C(=O)O (stereo not drawn) [Example 117, [1,1'-Biphenyl]-4-butanoic acid, 4'-chloro-α-ethyl-γ-oxo-], the pIC50 [1] was 6.23 and the pIC50 [2] was 5.42.

Work on CCc1ccc(-c2ccc(C(=O)CC(CC(C)C)C(=O)O)cc2)cc1 (stereo not drawn) [Example 16, [1,1'-Biphenyl]-4-butanoic acid, 4'-ethyl-α-(2-methylpropyl)-γ-oxo-] yielded a pIC50 [1] of 6.21 and a pIC50 [2] of 5.51.

O=C(CC(CCCc1ccccc1)C(=O)O)c1ccc(-c2ccc(O)cc2)cc1 (stereo not drawn) [Example 83, [1,1'-Biphenyl]-4-butanoic acid, 4'-hydroxy-γ-oxo-α-(3-phenylpropyl)-] was tested, and the pIC50 [1] was 6.14 and the pIC50 [2] was 5.85.

O=C(CC(CCCc1ccccc1)C(=O)O)c1ccc(-c2cc(C(F)(F)F)cc(C(F)(F)F)c2)cc1 (stereo not drawn) [Example 79, [1,1'-Biphenyl]-4-butanoic acid, γ-oxo-α-(3-phenylpropyl)-3',5'-bis(trifluoromethyl)-] was tested, and the inhibition at 5 µM [1] was 12% and the inhibition at 5 µM ([2]; at 5 μM) was 9%.

O=C(CC(CSc1ccc2ccccc2c1)C(=O)O)c1ccc(-c2ccc(Cl)cc2)cc1 (stereo not drawn) [Example 226, [1,1'-Biphenyl]-4-butanoic acid, 4'-chloro-α-[(2-naphthalenylthio)methyl]-γ-oxo-] gave a pIC50 [1] of 6.14 and a pIC50 [2] of 6.59.

CC(C)CC(CC(=O)c1ccc(-c2ccc(O)cc2)cc1)C(=O)O (stereo not drawn) [Example 31, [1,1'-Biphenyl]-4-butanoic acid, 4'-hydroxy-α-(2-methylpropyl)γ-oxo-] gave an inhibition at 5 µM [1] of 56% and an inhibition at 5 µM ([2]; at 5 μM) of 29%.

For O=C(CC(CSc1ccccc1Cl)C(=O)O)c1ccc(-c2ccc(Cl)cc2)cc1 (stereo not drawn) [Example 230, [1,1'-Biphenyl]-4-butanoic acid, 4'-chloro-α-[[(2-chlorophenyl)thio]methyl]-γ-oxo-], the pIC50 [1] was 6.60 and the pIC50 [2] was 6.26.

Compound C#CCC(CC(=O)c1ccc(-c2ccc(Cl)cc2)cc1)C(=O)O (stereo not drawn) [Example 121, [1,1'-Biphenyl]-4-butanoic acid, 4'-chloro-γ-oxo-α-2-propynyl-] has a pIC50 [1] of 6.00 and an inhibition at 5 µM ([2]; at 5 μM) of 45%.

O=C(CC(CSc1ccc(Cl)c(Cl)c1)C(=O)O)c1ccc(-c2ccc(Cl)cc2)cc1 (stereo not drawn) [Example 216, [1,1'-Biphenyl]-4-butanoic acid, 4'-chloro-α-[[(3,4-dichlorophenyl)thio]methyl]-γ-oxo-] gave a pIC50 [1] of 6.11 and a pIC50 [2] of 6.23.

In the case of CN(C)CCC(CC(=O)c1ccc(-c2ccc(Cl)cc2)cc1)C(=O)O (stereo not drawn) [Example 263, [1,1'-Biphenyl]-4-butanoic acid, 4'-chloro-α-[2-(dimethylamino)ethyl]-γ-oxo-, hydrochloride], the inhibition at 5 µM [1] was 33% and the inhibition at 5 µM ([2]; at 5 μM) was 21%.

O=C(CC(CSc1ccccc1Br)C(=O)O)c1ccc(-c2ccc(Cl)cc2)cc1 (stereo not drawn) [Example 219, [1,1'-Biphenyl]-4-butanoic acid, 4'-chloro-α-[[(2-bromophenyl)thio]methyl]-4'-chloro-γ-oxo-] showed a pIC50 [1] of 6.59 and a pIC50 [2] of 6.22.

CC(CC(=O)c1ccc(-c2ccc(Cl)cc2)cc1)(Sc1ccccc1)C(=O)O (stereo not drawn) [Example 245, [1,1'-Biphenyl]-4-butanoic acid, 4'-chloro-α-methyl-γ-oxo-α-(phenylthio)-] was tested, and the inhibition at 5 µM [1] was 55%.

With O=C(CC(Sc1ccccc1)C(=O)O)c1ccc(-c2ccc(Cl)cc2)cc1 (stereo not drawn) [Example 251, [1,1'-Biphenyl]-4-butanoic acid, 4'-chloro-γ-oxo-α-(phenylthio)-] the pIC50 [1] was 6.19 and the pIC50 [2] was 5.12.

With O=C(CC(CCOCc1ccccc1)C(=O)O)c1ccc(-c2ccc(Cl)cc2)cc1 (stereo not drawn) [Example 190, [1,1'-Biphenyl]-4-butanoic acid, 4'-chloro-γ-oxo-α-[2-(phenylmethoxy)ethyl]-] the pIC50 [1] was 6.64 and the pIC50 [2] was 6.67.

In the case of CCN(CC)CCCC(CC(=O)c1ccc(-c2ccc(Cl)cc2)cc1)C(=O)O (stereo not drawn) [Example 265, [1,1'-Biphenyl]-4-butanoic acid, 4'-chloro-α-[3-(diethylamino)propyl]-γ-oxo-, trifluoroacetate], the pIC50 [1] was 5.54 and the inhibition at 5 µM ([2]; at 5 μM) was 42%.

Cc1nc(-c2ccc(C(=O)CC(CC(C)C)C(=O)O)cc2)cs1 (stereo not drawn) [Example 348, Benzenebutanoic acid, α-(2-methylpropyl)-4-(2-methyl-4-thiazolyl)γ-oxo-] gave an inhibition at 5 µM [1] of 31% and an inhibition at 5 µM ([2]; at 5 μM) of 36%.

With O=C(CC(CCc1ccccc1)C(=O)O)c1ccc(-c2ccc(Cl)cc2)cc1 (stereo not drawn) [Example 132, [1,1'-Biphenyl]-4-butanoic acid, 4'-chloro-γ-oxo-α-(2-phenylethyl)-] the pIC50 [1] was 6.95 and the pIC50 [2] was 5.59.

O=C(CC(CCc1ccccc1)C(=O)O)c1ccc(-c2ccc([N+](=O)[O-])cc2)cc1 (stereo not drawn) [Example 124, [1,1'-Biphenyl]-4-butanoic acid, 4'-nitro-γ-oxo-α-(2-phenylethyl)-] showed a pIC50 [1] of 6.74 and an inhibition at 5 µM ([2]; at 5 μM) of 28%.

Compound O=C(CC(NC(c1ccccc1)c1ccccc1)C(=O)O)c1ccc(-c2ccc(Cl)cc2)cc1 (stereo not drawn) [Example 260, [1,1'-Biphenyl]-4-butanoic acid, 4'-chloro-α-[(diphenylmethyl)amino]-γ-oxo-, hydrochloride] has a pIC50 [1] of 6.28 and an inhibition at 5 µM [2] of 16%.

Compound O=C(CC(CSc1ccccc1CO)C(=O)O)c1ccc(-c2ccc(Cl)cc2)cc1 (stereo not drawn) [Example 217, [1,1'-Biphenyl]-4-butanoic acid, 4'-chloro-α-[[[2-(hydroxymethyl)phenyl]thio]methyl]-γ-oxo-] has a pIC50 [1] of 7.08 and a pIC50 [2] of 6.61.

O=C(C[C@@H](C[S+]([O-])c1ccccc1)C(=O)O)c1ccc(-c2ccc(Cl)cc2)cc1 (stereo partly drawn) [Example 246, [1,1'-Biphenyl]-4-butanoic acid, 4'-chloro-γ-oxo-α-[(phenylsulfinyl)methyl]-, stereoisomer] showed an inhibition at 5 µM [1] of 14%.

CCN(CC)CCC(CC(=O)c1ccc(-c2ccc(Cl)cc2)cc1)C(=O)O (stereo not drawn) [Example 264, [1,1'-Biphenyl]-4-butanoic acid, 4'-chloro-α-[2-(diethylamino)ethyl]-γ-oxo-, hydrochloride] gave an inhibition at 5 µM [1] of 48%.

For CC(C)CC1CC(c2ccc(-c3ccc(Cl)cc3)cc2)OC1=O (stereo not drawn) [Example 35, 2(3H)-Furanone, 5-(4'-chloro[1,1'-biphenyl]-4-yl)dihydro-3-(2-methylpropyl)-, reference compound], the inhibition at 5 µM [1] was 0%.

CCCCCCCCCCC(CC(=O)c1ccc(-c2ccc(Cl)cc2)cc1)C(=O)O (stereo not drawn) [Example 123, [1,1'-Biphenyl]-4-butanoic acid, 4'-chloro-α-decyl-γ-oxo-] showed an inhibition at 5 µM [1] of 43%.

O=C(CC(CCc1ccccc1I)C(=O)O)c1ccc(-c2ccc(Cl)cc2)cc1 (stereo not drawn) [Example 126, [1,1'-Biphenyl]-4-butanoic acid, 4'-chloro-α-[2-(2-iodophenyl)ethyl]-γ-oxo-] showed a pIC50 [1] of 6.22.

CCCCCCCC(CC(=O)c1ccc(-c2ccc(Cl)cc2)cc1)C(=O)O (stereo not drawn) [Example 122, [1,1'-Biphenyl]-4-butanoic acid, 4'-chloro-α-hepty-γ-oxo-] gave a pIC50 [1] of 6.39.

In the case of COC(=O)c1ccccc1CCC(CC(=O)c1ccc(-c2ccc(Cl)cc2)cc1)C(=O)O (stereo not drawn) [Example 142, [1,1'-Biphenyl]-4-butanoic acid, 4'-chloro-α-[2-[2-(methoxycarbonyl)phenyl]ethyl]-γ-oxo-], the pIC50 [1] was 6.51.

O=C(O)Cc1ccc(SCC(CC(=O)c2ccc(-c3ccc(Cl)cc3)cc2)C(=O)O)cc1 (stereo not drawn) [Example 238, [1,1'-Biphenyl]-4-butanoic acid, α-[[[4-(carboxymethyl)phenyl]thio]methyl]-4'-chloro-γ-oxo-] was tested, and the pIC50 [1] was 6.04.

O=C(CC(CSc1cccc(C(F)(F)F)c1)C(=O)O)c1ccc(-c2ccc(Cl)cc2)cc1 (stereo not drawn) [Example 236, [1,1'-Biphenyl]-4-butanoic acid, 4'-chloro-γ-oxo-α-[[[3-(trifluoromethyl)phenyl]thio]methyl]-] was tested, and the pIC50 [1] was 5.70.

For COC(=O)c1ccc(SCC(CC(=O)c2ccc(-c3ccc(Cl)cc3)cc2)C(=O)O)cc1 (stereo not drawn) [Example 237, [1,1'-Biphenyl]-4-butanoic acid, 4'-chloro-α-[[[4-(methoxycabonyl)phenyl]thio]methyl]-γ-oxo-], the pIC50 [1] was 5.70.

Work on O=C(C[C@@H](CSc1ccccc1)C(=O)O)c1ccc(-c2ccc(Cl)cc2)cc1 [Example 198, 4-[4-(4-chlorophenyl)phenyl]-4-oxo-2R-(phenylthiomethyl)butanoic acid] yielded an inhibition at 5 µM ([2]; at 5 μM) of 21%.

For O=C(C[C@H](C[S+]([O-])c1ccccc1)C(=O)O)c1ccc(-c2ccc(Cl)cc2)cc1 (stereo partly drawn) [Example 249, [1,1'-Biphenyl]-4-butanoic acid, 4'-chloro-γ-oxo-α-[(phenylsulfinyl)methyl]-, stereoisomer], the pIC50 [1] was 5.80.

Compound O=C(C[C@H](C[S+]([O-])c1ccccc1)C(=O)O)c1ccc(-c2ccc(Cl)cc2)cc1 (stereo partly drawn) [Example 248, [1,1'-Biphenyl]-4-butanoic acid, 4'-chloro-γ-oxo-α-[(phenylsulfinyl)methyl]-, stereoisomer] has a pIC50 [1] of 6.08.
